In ChEMBL document CHEMBL1128620, “Relationship between cytotoxicity and DNA-binding affinity of amidine derivatives of tetrahydroquino[4,3-b][1]benzazepines and tetrahydrobenzo[k]naphthyridines” (Bioorg Med Chem Lett, 1995):

Experiments:
Nucleic Acid = experiment: DNA binding affinity was evaluated as thermal denaturation using calf thymus DNA; type: nucleic-acid assay; settings: Bos taurus
CH1 = experiment: In vitro cytotoxicity against CH1 ovarian carcinoma cells; type: functional, cell-based; settings: Homo sapiens
SK-OV-3 = experiment: In vitro cytotoxicity against SKOV-3 ovarian carcinoma cells; type: functional, cell-based; settings: Homo sapiens

SMILES | ΔTm (Nucleic Acid) | IC50 (CH1) | IC50 (SK-OV-3)
CNc1cccc2c1C(C)C[C@]1(C)C(NCCCN)=Nc3ccccc3[C@H]21 (some centres undefined) | 0.88 °C | 2 µM | 3.1 µM
CCCNC1=Nc2ccccc2[C@@H]2c3cccc(NC)c3C(C)C[C@]12C (some centres undefined) | 0.29 °C | 9 µM | 12 µM
CNc1cccc2c1C(C)C[C@]1(C)C(NCCCCN)=Nc3ccccc3[C@H]21 (some centres undefined) | 1.14 °C | 3.5 µM | 2.25 µM
CNc1cccc2c1C(C)C[C@]1(C)C(NCCCO)=Nc3ccccc3[C@H]21 (some centres undefined) | 0.35 °C | 6 µM | 12.5 µM

More lines, main results first:

ΔTm (Nucleic Acid) | SMILES | IC50 (CH1) | IC50 (SK-OV-3)
0.17 °C | CCCNC1=Nc2ccccc2[C@@H]2N(C)c3ccccc3C(C)C[C@]12C (some centres undefined) | 10.5 µM | 1.4 µM
0.46 °C | CC1C[C@]2(C)C(NCCCN)=Nc3ccccc3[C@@H]2N(C)c2ccccc21 (some centres undefined) | 0.5 µM | 3.3 µM
0.24 °C | CC1C[C@]2(C)C(NCCCO)=Nc3ccccc3[C@@H]2N(C)c2ccccc21 (some centres undefined) | 14 µM | 32.5 µM
0.58 °C | CC1C[C@]2(C)C(NCCCCN)=Nc3ccccc3[C@@H]2N(C)c2ccccc21 (some centres undefined) | 1.6 µM | 1.6 µM
